25 molecules from patent publication US20190375708A1 (VenatoRx Pharmaceuticals, Inc., priority 2018, published 2019) can be followed below.

Series [1] deals with HBV replication in HepAD38 cells. The series can be described thus: Anti-HBV replication assay in HepAD38 cells (QPCR of extracellular HBV DNA). Type of series: cell-based, HBV (genotype D, serotype ayw). The note with it: Hepatitis B virus, 168 h, 7 days incubation, extracellular HBV DNA by QPCR, read-out: Anti-HBV EC50. The procedure, abridged: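 EC50 values reflect 50% reduction of extracellular HBV DNA, measured by QPCR after 7-day treatment of tetracycline-deprived HepAD38 cells with compound […].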

The nature of series [2]: In vitro cytotoxicity assay (MTT cell viability) in HepG2 cells. Type of series: cell-based, human. Particulars: human. The procedure, abridged:
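HepG2 seeded overnight, then 7-day compound exposure (30 μM–1.0 nM, half-log steps), 37 °C. MTT 3-4 h, DMSO solubilization, A492. % of vehicle → CC50, 4-PL fit.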

Regarding `Cc1cc(NC(=O)c2c(C)c(C(=O)C(=O)N[C@H]3CC[C@@H](O)C3)n(C)c2C)ccc1F` [Example 245, N-(4-fluoro-3-methylphenyl)-5-(2-(((1S,3R)-3-hydroxycyclopentyl)amino)-2-oxoacetyl)-1,2,4-trimethyl-1H-pyrrole-3-carboxamide], in series [1], the EC50 was < 0.05 µM. Also, in series [2], the CC50 at 7 days was > 30 µM.

As for `Cc1cc(NC(=O)c2c(C)c(C(=O)C(=O)N[C@H]3CC[C@H](O)CC3)n(C)c2C)ccc1F` [Example 246, N-(4-fluoro-3-methylphenyl)-5-(2-(((1r,4r)-4-hydroxycyclohexyl)amino)-2-oxoacetyl)-1,2,4-triemthyl-1H-pyrrole-3-carboxamide], in series [1], the EC50 was < 0.05 µM. Besides, in series [2], the half-maximal cytotoxic concentration (CC50) at 7 days lay within 5 to 30 µM.

Consider `Cc1cc(NC(=O)c2c(C)c(C(=O)C(=O)NC3CCOCC3)n(C)c2C)ccc1F` [Example 247, N-(4-fluoro-3-methylphenyl)-1,2,4-trimethyl-5-(2-oxo-2-((tetrahydro-2H-pyran-4-yl)amino)acetyl)-1H-pyrrole-3-carboxamide], for which the EC50 in series [1] is < 0.05 µM. The molecule also registered a half-maximal cytotoxic concentration (CC50) at 7 days in series [2] of 5 to 30 µM.

In the case of `COc1cc(NC(=O)C(=O)c2c(C)c(C(=O)Nc3ccc(F)c(C)c3)c(C)n2C)ccc1B(O)O` [Example 248, (4-(2-(4-((4-fluoro-3-methylphenyl)carbamoyl)-1,3,5-trimethyl-1H-pyrrol-2-yl)-2-oxoacetamido)-2-methoxyphenyl)boronic acid], the EC50 in series [1] lay in the range of 0.05 to 0.499 µM. In addition, the CC50 at 7 days in series [2] fell in the range of 5 to 30 µM.

Turning to `Cc1cc(NC(=O)c2c(C)c(C(=O)C(=O)NC3CCS(=O)(=O)CC3)n(C)c2C)ccc1F` [Example 249, 5-(2-((1,1-dioxidotetrahydro-2H-thiopyran-4-yl)amino)-2-oxoacetyl)-N-(4-fluoro-3-methylphenyl)-1,2,4-trimethyl-1H-pyrrole-3-carboxamide], in series [1], the EC50 is < 0.05 µM. The molecule also returned a CC50 at 7 days in series [2] of 5 to 30 µM.

`Cc1cc(NC(=O)c2c(C)c(C(=O)C(=O)NC3CCC(F)(F)CC3)n(C)c2C)ccc1F` [Example 250, 5-(2-((4,4-difluorocyclohexyl)amino)-2-oxoacetyl)-N-(4-fluoro-3-methylphenyl)-1,2,4-trimethyl-1H-pyrrole-3-carboxamide]: in series [1], the half-maximal effective concentration (EC50) is < 0.05 µM. The CC50 at 7 days in series [2] was in the range of 5 to 30 µM.

With `Cc1c(C(=O)Nc2ccc(F)c(Cl)c2)c(C)n(C)c1C(=O)C(=O)N[C@H]1CC[C@@H](O)CC1` [Example 251, N-(3-chloro-4-fluorophenyl)-5-(2-(((1s,4s)-4-hydroxycyclohexyl)amino)-2-oxoacetyl)-1,2,4-trimethyl-1H-pyrrole-3-carboxamide], the EC50 in series [1] is < 0.05 µM. The CC50 at 7 days in series [2] is > 30 µM.

As for `Cc1c(C(=O)Nc2ccnc(Cl)c2)c(C)n(C)c1C(=O)C(=O)N[C@H]1CC[C@@H](O)CC1` [Example 252, N-(2-chloropyridin-4-yl)-5-(2-(((1s,4s)-4-hydroxycyclohexyl)amino)-2-oxoacetyl)-1,2,4-trimethyl-1H-pyrrole-3-carboxamide], the EC50 in series [1] lay in the range of 0.05 to 0.499 µM. For the same molecule, in series [2], the CC50 at 7 days was > 30 µM.

With `Cc1c(C(=O)Nc2ccnc(Cl)c2)c(C)n(C)c1C(=O)C(=O)NC1(C(F)(F)F)CCOCC1` [Example 253, N-(2-chloropyridin-4-yl)-1,2,4-trimethyl-5-(2-oxo-2-((4-(trifluoromethyl)tetrahydro-2H-pyran-4-yl)amino)acetyl)-1H-pyrrole-3-carboxamide], the EC50 in series [1] was < 0.05 µM. Further, the CC50 at 7 days in series [2] was > 30 µM.

With `Cc1cc(NC(=O)c2c(C)c(C(=O)C(=O)Nc3cccc(B(O)O)c3)n(C)c2C)ccc1F` [Example 254, (3-(2-(4-((4-fluoro-3-methylphenyl)carbamoyl)-1,3,5-trimethyl-1H-pyrrol-2-yl)-2-oxoacetamido)phenyl)boronic acid], in series [1], the EC50 is < 0.05 µM. The molecule also showed a CC50 at 7 days in series [2] of 5 to 30 µM.

For `Cc1cc(NC(=O)c2c(C)c(C(=O)C(=O)Nc3ccc(B(O)O)cc3)n(C)c2C)ccc1F` [Example 255, (4-(2-(4-((4-fluoro-3-methylphenyl)carbamoyl)-1,3,5-trimethyl-1H-pyrrol-2-yl)-2-oxoacetamido)phenyl)boronic acid], in series [1], the EC50 was < 0.05 µM. In addition, in series [2], the CC50 at 7 days lay in the range of 5 to 30 µM.

Regarding `Cc1cc(NC(=O)c2c(C)c(C(=O)C(=O)NCCN)n(C)c2C)ccc1F` [Example 257, 5-(2-((2-aminoethyl)amino)-2-oxoacetyl)-N-(4-fluoro-3-methylphenyl)-1,2,4-trimethyl-1H-pyrrole-3-carboxamide], the EC50 in series [1] lay within 0.05 to 0.499 µM. The molecule further had a CC50 at 7 days in series [2] of 5 to 30 µM.

In the case of `Cc1cc(NC(=O)c2c(C)c(C(=O)C(=O)N[C@@H]3c4ccccc4C[C@@H]3O)n(C)c2C)ccc1F` [Example 258, N-(4-fluoro-3-methylphenyl)-5-(2-(((1R,2S)-2-hydroxy-2,3-dihydro-1H-inden-1-yl)amino)-2-oxoacetyl)-1,2,4-trimethyl-1H-pyrrole-3-carboxamide], in series [1], the EC50 is < 0.05 µM. This molecule also returned a CC50 at 7 days in series [2] of 5 to 30 µM.

For `Cc1cc(NC(=O)c2c(C)c(C(=O)C(=O)N[C@H]3c4ccccc4C[C@@H]3O)n(C)c2C)ccc1F` [Example 259, N-(4-fluoro-3-methylphenyl)-5-(2-(((1S,2S)-2-hydroxy-2,3-dihydro-1H-inden-1-yl)amino)-2-oxoacetyl)-1,2,4-trimethyl-1H-pyrrole-3-carboxamide], the EC50 in series [1] was < 0.05 µM. In addition, the CC50 at 7 days in series [2] was > 30 µM.

Regarding `Cc1cc(NC(=O)c2c(C)c(C(=O)C(=O)N[C@H]3c4ccccc4C[C@H]3O)n(C)c2C)ccc1F` [Example 260, N-(4-fluoro-3-methylphenyl)-5-(2-(((1S,2R)-2-hydroxy-2,3-dihydro-1H-inden-1-yl)amino)-2-oxoacetyl)-1,2,4-trimethyl-1H-pyrrole-3-carboxamide], in series [1], the EC50 was < 0.05 µM. Further, in series [2], the CC50 at 7 days was in the range of 5 to 30 µM.

On to `Cc1cc(NC(=O)c2c(C)c(C(=O)C(=O)N[C@@H]3c4ccccc4C[C@H]3O)n(C)c2C)ccc1F` [Example 261, N-(4-fluoro-3-methylphenyl)-5-(2-(((1R,2R)-2-hydroxy-2,3-dihydro-1H-inden-1-yl)amino)-2-oxoacetyl)-1,2,4-trimethyl-1H-pyrrole-3-carboxamide], for which the EC50 in series [1] was < 0.05 µM. The molecule also showed a CC50 at 7 days in series [2] of 0.5 to 4.99 µM.

Take `Cc1cc(NC(=O)c2c(C)c(C(=O)C(=O)NC3CCCCC3)n(C)c2C)ccc1F` [Example 262, 5-(2-(cyclohexylamino)-2-oxoacetyl)-N-(4-fluoro-3-methylphenyl)-1,2,4-trimethyl-1H-pyrrole-3-carboxamide]: in series [1], the EC50 is < 0.05 µM. In series [2], the CC50 at 7 days was in the range of 5 to 30 µM.

For `Cc1cc(NC(=O)c2c(C)c(C(=O)C(=O)NC34CCC(O)(CC3)CC4)n(C)c2C)ccc1F` [Example 263, N-(4-fluoro-3-methylphenyl)-5-(2-((4-hydroxybicyclo[2.2.2]octan-1-yl)amino)-2-oxoacetyl)-1,2,4-trimethyl-1H-pyrrole-3-carboxamide], the EC50 in series [1] is < 0.05 µM. For the same molecule, in series [2], the CC50 at 7 days is > 30 µM.

Regarding `Cc1cc(NC(=O)c2c(C)c(C(=O)C(=O)Nc3ccc(C(F)(F)F)nc3)n(C)c2C)ccc1F` [Example 264, N-(4-fluoro-3-methylphenyl)-1,2,4-trimethyl-5-(2-oxo-2-((6-(trifluoromethyl)pyridin-3-yl)amino)acetyl)-1H-pyrrole-3-carboxamide], the EC50 in series [1] is < 0.05 µM. Moreover, in series [2], the CC50 at 7 days lay in the range of 5 to 30 µM.

As for `Cc1cc(NC(=O)c2c(C)c(C(=O)C(=O)Nc3ccc(N4CCOCC4)nc3)n(C)c2C)ccc1F` [Example 266, N-(4-fluoro-3-methylphenyl)-1,2,4-trimethyl-5-(2-((6-morpholinopyridin-3-yl)amino)-2-oxoacetyl)-1H-pyrrol-3-carboxamide], the EC50 in series [1] lay within 0.05 to 0.499 µM. The CC50 at 7 days in series [2] is > 30 µM.

In the case of `Cc1cc(NC(=O)c2c(C)c(C(=O)C(=O)N[C@]3(C)C[C@H](O)C3)n(C)c2C)ccc1F` [Example 267, N-(4-fluoro-3-methylphenyl)-5-(2-(((1s,3s)-3-hydroxy-1-methylcyclobutyl)amino)-2-oxoacetyl)-1,2,4-trimethyl-1H-pyrrole-3-carboxamide], the 50% effective concentration (EC50) in series [1] was < 0.05 µM. The CC50 at 7 days in series [2] was > 30 µM.

On to `CO[C@H]1CC[C@@H](NC(=O)C(=O)c2c(C)c(C(=O)Nc3ccc(F)c(C)c3)c(C)n2C)CC1` [Example 268, N-(4-fluoro-3-methylphenyl)-5-(2-(((1s,4s)-4-methoxycyclohexyl)amino)-2-oxoacetyl)-1,2,4-trimethyl-1H-pyrrole-3-carboxamide], for which the concentration giving a half-maximal response (EC50) in series [1] was < 0.05 µM. In addition, the CC50 at 7 days in series [2] fell in the range of 5 to 30 µM.

Take `CO[C@H]1CC[C@H](NC(=O)C(=O)c2c(C)c(C(=O)Nc3ccc(F)c(C)c3)c(C)n2C)CC1` [Example 269, N-(4-fluoro-3-methylphenyl)-5-(2-(((1r,4r)-4-methoxycyclohexyl)amino)-2-oxoacetyl)-1,2,4-trimethyl-1H-pyrrole-3-carboxamide]: the EC50 in series [1] is < 0.05 µM. The molecule also gave a CC50 at 7 days in series [2] of 5 to 30 µM.

Consider `Cc1cc(NC(=O)c2c(C)c(C(=O)C(=O)NCCN3CCOCC3)n(C)c2C)ccc1F` [Example 270, N-(4-fluoro-3-methylphenyl)-1,2,4-trimethyl-5-(2-((2-morpholinoethyl)amino)-2-oxoacetyl)-1H-pyrrole-3-carboxamide], for which the EC50 in series [1] was < 0.05 µM. Besides, in series [2], the CC50 at 7 days is > 30 µM.

`Cc1c(C(=O)Nc2ccnc(F)c2)c(C)n(C)c1C(=O)C(=O)NC1(C(F)(F)F)CCOCC1` [Example 271, N-(2-fluoropyridin-4-yl)-1,2,4-trimethyl-5-(2-oxo-2-((4-(trifluoromethyl)tetrahydro-2H-pyran-4-yl)amino)acetyl)-1H-pyrrole-3-carboxamide]: the EC50 in series [1] is < 0.05 µM. For the same molecule, the CC50 at 7 days in series [2] was > 30 µM.
